Results taken from US20150010928A1, “MEANS AND METHODS FOR ASSESSING AN ENDOCRINE DISEASE OR DISORDER” (priority 2012, published 2015).
Marks after values point to notes of the source that are not given here.

Test system: female rats
Assay: Plasma metabolite profiling (GC-MS, LC-MS, SPE-LC-MS) in female rats dosed once daily over 28 days (OECD 407)
Format: in vivo, rat
Conditions: high dose
Summary of the method: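 Metabolites were measured by GC-MS (derivatised) and reversed-phase LC-MS, with steroids by online SPE-LC-MS, in plasma drawn from fasted rats on days 7, 14 and 28 of once-daily dosing (5/sex/group). Values are ratios versus sex-matched untreated controls, normalized to pool samples, with Welch-test p-values.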

Compound: C[C@]12CCC(=O)C=C1CC[C@@H]1[C@@H]2CC[C@@]2(C)[C@H]1CC[C@]2(C)O [17-alpha-Methyltestosterone]
- 3-Hydroxybutyrate (f7, female rats, Table 15a): 1.5*
- DAG (C18:1,C18:2) (f7, female rats, Table 15a): 3.01 *
- Glutamate (f7, female rats, Table 15a): 1.56 *
- Glycine (f7, female rats, Table 15a): 1.28 *
- Phosphatidylcholine (C16:0,C20:5) (f7, female rats, Table 15a): 1.22 *
- TAG (C16:0,C16:1) (f7, female rats, Table 15a): 3.85 *
- TAG (C16:0,C18:1,C18:3) (f7, female rats, Table 15a): 8.68 *
- TAG (C16:0,C18:2) (f7, female rats, Table 15a): 4.63 *
- TAG (C18:1,C18:2) (f7, female rats, Table 15a): 5.83 *
- TAG (C18:2,C18:2) (f7, female rats, Table 15a): 4.67 *
- TAG (C18:3, C18:2, C18:1) (f7, female rats, Table 15a): 6.36*
- TAG (DAG-Fragment) (f7, female rats, Table 15a): 5.82 *
- TAG No 059 (f7, female rats, Table 15a): 3.27 *
- Threonic acid (f7, female rats, Table 15a): 1.65 *
- trans-4-Hydroxyproline (f7, female rats, Table 15a): 1.4 *
- Arginine (f7, female rats, Table 15b): 0.69 *
- Campesterol (f7, female rats, Table 15b): 0.65 *
- Ceramide (d18:1,C24:0) (f7, female rats, Table 15b): 0.79 *
- Lactate (f7, female rats, Table 15b): 0.47 *
- Lysine (f7, female rats, Table 15b): 0.49 *
- Metanephrine (f7, female rats, Table 15b): 0.78 *
- Normetanephrine (f7, female rats, Table 15b): 0.61 *
- Phosphatidylcholine (C16:0,C20:5) (f7, female rats, Table 15b): 1.22
- Phosphatidylcholine (C16:0,C22:6) (f7, female rats, Table 15b): 0.86 *
- Phosphatidylcholine (C18:0, C20:3) (f7, female rats, Table 15b): 0.69 *
- Phosphatidylcholine (C18:0,C18:1) (f7, female rats, Table 15b): 0.78 *
- Pyruvate (f7, female rats, Table 15b): 0.52 *
- Sphingomyelin (d18:1,C23:0) (f7, female rats, Table 15b): 0.56 *
- Sphingomyelin (d18:1,C24:0) (f7, female rats, Table 15b): 0.67 *
- Urea (f7, female rats, Table 15b): 0.72 *
- 3-Hydroxybutyrate (f14, female rats, Table 15a): 2.03 *
- DAG (C18:1,C18:2) (f14, female rats, Table 15a): 3.17 *
- Glutamate (f14, female rats, Table 15a): 1.43 *
- Glycine (f14, female rats, Table 15a): 1.15 *
- Phosphatidylcholine (C16:0,C20:5) (f14, female rats, Table 15a): 1.15 *
- TAG (C16:0,C16:1) (f14, female rats, Table 15a): 2.59 *
- TAG (C16:0,C18:1,C18:3) (f14, female rats, Table 15a): 7.54 *
- TAG (C16:0,C18:2) (f14, female rats, Table 15a): 4.63 *
- TAG (C18:1,C18:2) (f14, female rats, Table 15a): 4.5 *
- TAG (C18:2,C18:2) (f14, female rats, Table 15a): 5.09 *
- TAG (C18:3, C18:2, C18:1) (f14, female rats, Table 15a): 5.29 *
- TAG (DAG-Fragment) (f14, female rats, Table 15a): 5.43 *
- TAG No 059 (f14, female rats, Table 15a): 4.08 *
- Threonic acid (f14, female rats, Table 15a): 2.84 *
- trans-4-Hydroxyproline (f14, female rats, Table 15a): 1.56 *
- Arginine (f14, female rats, Table 15b): 0.67 *
- Campesterol (f14, female rats, Table 15b): 0.62 *
- Ceramide (d18:1,C24:0) (f14, female rats, Table 15b): 0.7 *
- Lactate (f14, female rats, Table 15b): 0.34 *
- Lysine (f14, female rats, Table 15b): 0.49 *
- Metanephrine (f14, female rats, Table 15b): 0.66 *
- Normetanephrine (f14, female rats, Table 15b): 0.65 *
- Phosphatidylcholine (C16:0,C20:5) (f14, female rats, Table 15b): 1.15
- Phosphatidylcholine (C16:0,C22:6) (f14, female rats, Table 15b): 0.78 *
- Phosphatidylcholine (C18:0, C20:3) (f14, female rats, Table 15b): 0.76 *
- Phosphatidylcholine (C18:0,C18:1) (f14, female rats, Table 15b): 0.94 *
- Pyruvate (f14, female rats, Table 15b): 0.35 *
- Sphingomyelin (d18:1,C23:0) (f14, female rats, Table 15b): 0.52 *
- Sphingomyelin (d18:1,C24:0) (f14, female rats, Table 15b): 0.6 *
- Urea (f14, female rats, Table 15b): 0.63 *
- 3-Hydroxybutyrate (f28, female rats, Table 15a): 1.49 *
- DAG (C18:1,C18:2) (f28, female rats, Table 15a): 2.97 *
- Glutamate (f28, female rats, Table 15a): 1.58 *
- Glycine (f28, female rats, Table 15a): 1.29 *
- Phosphatidylcholine (C16:0,C20:5) (f28, female rats, Table 15a): 1.17*
- TAG (C16:0,C16:1) (f28, female rats, Table 15a): 2.04 *
- TAG (C16:0,C18:1,C18:3) (f28, female rats, Table 15a): 9.21*
- TAG (C16:0,C18:2) (f28, female rats, Table 15a): 5.09 *
- TAG (C18:1,C18:2) (f28, female rats, Table 15a): 5.32 *
- TAG (C18:2,C18:2) (f28, female rats, Table 15a): 8.15 *
- TAG (C18:3, C18:2, C18:1) (f28, female rats, Table 15a): 7.3*
- TAG (DAG-Fragment) (f28, female rats, Table 15a): 6.9 *
- TAG No 059 (f28, female rats, Table 15a): 5.2 *
- Threonic acid (f28, female rats, Table 15a): 2.29 *
- trans-4-Hydroxyproline (f28, female rats, Table 15a): 1.61 *
- Arginine (f28, female rats, Table 15b): 0.59 *
- Campesterol (f28, female rats, Table 15b): 0.66 *
- Ceramide (d18:1,C24:0) (f28, female rats, Table 15b): 0.52 *
- Lactate (f28, female rats, Table 15b): 0.52 *
- Lysine (f28, female rats, Table 15b): 0.52 *
- Metanephrine (f28, female rats, Table 15b): 0.81 *
- Normetanephrine (f28, female rats, Table 15b): 0.66 *
- Phosphatidylcholine (C16:0,C20:5) (f28, female rats, Table 15b): 1.17
- Phosphatidylcholine (C16:0,C22:6) (f28, female rats, Table 15b): 0.79 *
- Phosphatidylcholine (C18:0, C20:3) (f28, female rats, Table 15b): 0.68 *
- Phosphatidylcholine (C18:0,C18:1) (f28, female rats, Table 15b): 0.81 *
- Pyruvate (f28, female rats, Table 15b): 0.4 *
- Sphingomyelin (d18:1,C23:0) (f28, female rats, Table 15b): 0.42 *
- Sphingomyelin (d18:1,C24:0) (f28, female rats, Table 15b): 0.52 *
- Urea (f28, female rats, Table 15b): 0.8*
